Laboratory results taken from US9445594B2, “Molecules having certain pesticidal utilities, intermediates, compositions, and processes, related thereto” (priority 2014, dated 2016).

Columns and labels:
Type in all cases: in vivo
[1] = test system: Beet Armyworm (Spodoptera exigua, LAPHEG) ("BAW"); assay: Bioassays on BAW, 128-well diet tray assay; settings: 168 h, second instar larvae, 50 μg/cm^2 on artificial diet, 25° C., five to seven days, average of eight wells, read-out: BAW % Control (or Mortality) rating
Description: (§1) Certain molecules disclosed in this document were tested against BAW, CEW, and CL using procedures described in the following examples. In the reporting of the results, the “BAW, CEW, & CL Rating Table” was used (See Table Section).
Bioassays on BAW were conducted using a 128-well diet tray assay. one to five second instar BAW larvae were placed in each well (3 mL) of the diet tray that had been previously filled with 1 mL of artificial diet to which 50 μg/cm^2 of the test compound (dissolved in 50 μL of 90:10 acetone-water mixture) had been applied (to each of eight wells) and then allowed to dry. Trays were covered with a clear self-adhesive cover and held at 25° C., 14:10 light-dark for five to seven days. Percent mortality was recorded for the larvae in each well; activity in the eight wells was then averaged. The results are indicated in the table entitled “Table ABC: Biological Results” (See Table Section).

[2] = test system: Cabbage Looper (Trichoplusia ni, TRIPNI) ("CL"); assay: Bioassays on CL, 128-well diet tray assay; settings: 168 h, second instar larvae, 50 μg/cm^2 on artificial diet, 25° C., five to seven days, average of eight wells, read-out: CL % Control (or Mortality) rating
Description: as §1
Bioassays on CL were conducted using a 128-well diet tray assay. one to five second instar CL larvae were placed in each well (3 mL) of the diet tray that had been previously filled with 1 mL of artificial diet to which 50 μg/cm^2 of the test compound (dissolved in 50 μL of 90:10 acetone-water mixture) had been applied (to each of eight wells) and then allowed to dry. Trays were covered with a clear self-adhesive cover and held at 25° C., 14:10 light-dark for five to seven days. Percent mortality was recorded for the larvae in each well; activity in the eight wells was then averaged. The results are indicated in the table entitled “Table ABC: Biological Results” (See Table Section).

[3] = test system: Yellow Fever Mosquito (Aedes aegypti, AEDSAE) ("YFM"); assay: Bioassays on YFM, 96-well plate larval assay; settings: about 1 day-old larvae, from 4000 ppm DMSO master plate diluted, room temperature, scored after 3 days
Description: Certain molecules disclosed in this document were tested against YFM using procedures described in the following paragraph. In the reporting of the results, the “YFM Rating Table” was used (See Table Section).
Master plates containing 400 μg of a molecule dissolved in 100 μL of dimethyl sulfoxide (DMSO) (equivalent to a 4000 ppm solution) are used. A master plate of assembled molecules contains 15 μL per well. To this plate, 135 μL of a 90:10 water:acetone mixture is added to each well. A robot (Biomek® NXP Laboratory Automation Workstation) is programmed to dispense 15 μL aspirations from the master plate into an empty 96-well shallow plate (“daughter” plate). There are 6 reps (“daughter” plates) created per master. The created daughter plates are then immediately infested with YFM larvae.
The day before plates are to be treated, mosquito eggs are placed in Millipore water containing liver powder to begin hatching (4 g. into 400 mL). After the daughter plates are created using the robot, they are infested with 220 μL of the liver powder/larval mosquito mixture (about 1 day-old larvae). After plates are infested with mosquito larvae, a non-evaporative lid is used to cover the plate to reduce drying. Plates are held at room temperature for 3 days prior to grading. After 3 days, each well is observed and scored based on mortality.

SMILES | mortality at 50 µg/cm2 [1] | mortality at 50 µg/cm2 [2] | YFM % Control (or Mortality) rating [3]
COc1ccc(NC(=O)NCc2ccc(-c3ncn(-c4ccc(OC(F)(F)F)cc4)n3)cc2)cc1 [F109, 1-(4-Methoxyphenyl)-3-(4-(1-(4-(trifluoromethoxy)phenyl)-1H-1,2,4-triazol-3-yl)benzyl)urea] | 0% | 0% | D (No activity noticed in this bioassay)
COc1cccc(NC(=O)NCCCc2ccc(-c3ncn(-c4ccc(OC(F)(F)F)cc4)n3)cc2)c1 [F80, 1-(3-Methoxyphenyl)-3-(3-(4-(1-(4-(trifluoromethoxy)phenyl)-1H-1,2,4-triazol-3-yl)phenyl)propyl)urea] | 50 to 100% | 50 to 100% | A (80-100)
CC(C)c1ccccc1NC(=S)NCCCCc1ccc(-c2ncn(-c3ccc(OC(F)(F)F)cc3)n2)cc1 [F88, 1-(2-Isopropylphenyl)-3-(4-(4-(1-(4-(trifluoromethoxy)phenyl)-1H-1,2,4-triazol-3-yl)phenyl)butyl)thiourea] | 50 to 100% | 50 to 100% | A (80-100)
Cc1ccc(NC(=O)NCCCc2ccc(-c3ncn(-c4ccc(OC(F)(F)F)cc4)n3)cc2)cc1 [F83, 1-(p-Tolyl)-3-(3-(4-(1-(4-(trifluoromethoxy)phenyl)-1H-1,2,4-triazol-3-yl)phenyl)propyl)urea] | – | 0% | D (No activity noticed in this bioassay)
Cc1ccc(NC(=O)NCc2ccc(-c3ncn(-c4ccc(OC(F)(F)F)cc4)n3)cc2)cc1 [F102, 1-(p-Tolyl)-3-(4-(1-(4-(trifluoromethoxy)phenyl)-1H-1,2,4-triazol-3-yl)benzyl)urea] | 0% | 0% | D (No activity noticed in this bioassay)
CCc1ccccc1NC(=O)NCCCCc1ccc(-c2ncn(-c3ccc(OC(F)(F)F)cc3)n2)cc1 [F98, 1-(2-Ethylphenyl)-3-(4-(4-(1-(4-(trifluoromethoxy)phenyl)-1H-1,2,4-triazol-3-yl)phenyl)butyl)urea] | 0 to 50% | 0% | D (No activity noticed in this bioassay)
FC(F)(F)Oc1ccc(-n2cnc(-c3ccc(NC(=S)Nc4ccccc4-c4ccccc4)cc3)n2)cc1 [F47, 1-([1,1′-Biphenyl]-2-yl)-3-(4-(1-(4-(trifluoromethoxy)phenyl)-1H-1,2,4-triazol-3-yl)phenyl)thiourea] | 0% | 50 to 100% | D (No activity noticed in this bioassay)
O=C(NCc1ccc(-c2ncn(-c3ccc(OC(F)(F)F)cc3)n2)cc1)Nc1ccccc1Cl [F104, 1-(2-Chlorophenyl)-3-(4-(1-(4-(trifluoromethoxy)phenyl)-1H-1,2,4-triazol-3-yl)benzyl)urea] | 50 to 100% | 0 to 50% | B (More than 0 - Less than 80)
Cc1ccccc1N(C(=O)Nc1ccc(-c2ncn(-c3ccc(OC(F)(F)F)cc3)n2)cc1)C(N)=S [F19, N-(2-methylphenyl)-N-(4-{1-[4-(trifluoromethoxy)phenyl]-1H-1,2,4-triazol-3-yl}phenyl)dicarbonimidothioic diamide] | 50 to 100% | 50 to 100% | –
CCc1ccccc1NC(=O)NCc1ccc(-c2ncn(-c3ccc(OC(F)(F)F)cc3)n2)cc1 [F101, 1-(2-Ethylphenyl)-3-(4-(1-(4-(trifluoromethoxy)phenyl)-1H-1,2,4-triazol-3-yl)benzyl)urea] | 0% | – | D (No activity noticed in this bioassay)
O=C(NCCCc1ccc(-c2ncn(-c3ccc(OC(F)(F)F)cc3)n2)cc1)Nc1ccc(Cl)cc1 [F79, 1-(4-Chlorophenyl)-3-(3-(4-(1-(4-(trifluoromethoxy)phenyl)-1H-1,2,4-triazol-3-yl)phenyl)propyl)urea] | – | 50 to 100% | D (No activity noticed in this bioassay)
CCc1ccccc1N(C(=O)Nc1ccc(-c2ncn(-c3ccc(OC(F)(F)F)cc3)n2)cc1)C(N)=S [F52, N-(2-Ethylphenyl)-N-(4-{1-[4-(trifluoromethoxy)phenyl]-1H-1,2,4-triazol-3-yl}phenyl)dicarbonimidothioic diamide] | 50 to 100% | 50 to 100% | –
O=C(NCCCCc1ccc(-c2ncn(-c3ccc(OC(F)(F)F)cc3)n2)cc1)Nc1ccccc1Cl [F92, 1-(2-Chlorophenyl)-3-(4-(4-(1-(4-(trifluoromethoxy)phenyl)-1H-1,2,4-triazol-3-yl)phenyl)butyl)urea] | – | 0% | D (No activity noticed in this bioassay)
O=C(NCc1ccc(-c2ncn(-c3ccc(OC(F)(F)F)cc3)n2)cc1)Nc1ccccc1-c1ccccc1 [F70, 1-([1,1′-biphenyl]-2-yl)-3-(4-(1-(4-(trifluoromethoxy)phenyl)-1H-1,2,4-triazol-3-yl)benzyl)urea] | 50 to 100% | 50 to 100% | –
COc1cccc(NC(=O)NCCCCc2ccc(-c3ncn(-c4ccc(OC(F)(F)F)cc4)n3)cc2)c1 [F96, 1-(3-Methoxyphenyl)-3-(4-(4-(1-(4-(trifluoromethoxy)phenyl)-1H-1,2,4-triazol-3-yl)phenyl)butyl)urea] | 0% | – | D (No activity noticed in this bioassay)
Cc1cccc(NC(=O)NCCCc2ccc(-c3ncn(-c4ccc(OC(F)(F)F)cc4)n3)cc2)c1 [F87, 1-(m-Tolyl)-3-(3-(4-(1-(4-(trifluoromethoxy)phenyl)-1H-1,2,4-triazol-3-yl)phenyl)propyl)urea] | – | 0% | D (No activity noticed in this bioassay)
O=C(Nc1ccc(-c2ncn(-c3ccc(OC(F)(F)F)cc3)n2)cc1)Nc1ncccc1-c1ccccc1 [F32, 1-(3-Phenylpyridin-2-yl)-3-(4-(1-(4-(trifluoromethoxy)phenyl)-1H-1,2,4-triazol-3-yl)phenyl)urea] | – | – | B (More than 0 - Less than 80)
O=C(Nc1ccc(-c2ncn(-c3ccc(OC(F)(F)F)cc3)n2)cc1)Nc1ccccc1-n1cccc1 [F13, 1-(2-(1H-pyrrol-1-yl)phenyl)-3-(4-(1-(4-(trifluoromethoxy)phenyl)-1H-1,2,4-triazol-3-yl)phenyl)urea] | 50 to 100% | 50 to 100% | –
Cc1ccccc1-c1cccnc1NC(=O)Nc1ccc(-c2ncn(-c3ccc(OC(F)(F)F)cc3)n2)cc1 [F24, 1-(3-(o-Tolyl)pyridin-2-yl)-3-(4-(1-(4-(trifluoromethoxy)phenyl)-1H-1,2,4-triazol-3-yl)phenyl)urea] | 50 to 100% | 50 to 100% | –
Cc1cccc(NC(=O)NCCCCc2ccc(-c3ncn(-c4ccc(OC(F)(F)F)cc4)n3)cc2)c1 [F91, 1-(m-Tolyl)-3-(4-(4-(1-(4-(trifluoromethoxy)phenyl)-1H-1,2,4-triazol-3-yl)phenyl)butyl)urea] | – | 0% | D (No activity noticed in this bioassay)
COc1ccc(NC(=O)NCCCc2ccc(-c3ncn(-c4ccc(OC(F)(F)F)cc4)n3)cc2)cc1 [F82, 1-(4-Methoxyphenyl)-3-(3-(4-(1-(4-(trifluoromethoxy)phenyl)-1H-1,2,4-triazol-3-yl)phenyl)propyl)urea] | – | 0% | D (No activity noticed in this bioassay)
Cc1ccccc1NC(=O)NCCCCc1ccc(-c2ncn(-c3ccc(OC(F)(F)F)cc3)n2)cc1 [F89, 1-(o-Tolyl)-3-(4-(4-(1-(4-(trifluoromethoxy)phenyl)-1H-1,2,4-triazol-3-yl)phenyl)butyl)urea] | 0% | – | D (No activity noticed in this bioassay)
